Experimental data from US9975881B2, “Compound” (ASTRAZENECA AB, priority 2011, dated 2018).

Columns and labels:
[1] = Human hepatic intrinsic clearance (CLint) from human hepatocyte incubations; assay type: in vitro ADME; details: cryopreserved human hepatocytes in suspension, 1×10^6 cells/ml, 1 μM compound, no HSA, pH 7.4
Excerpt: Measurement of Human Hepatic Intrinsic Clearance (CLint)
For the majority of drugs, a large component of their plasma clearance is contributed by hepatic metabolism. Intrinsic clearance (CLint) is a measure of the potential of a compound to undergo metabolism and can be related to hepatic clearance in vivo from a consideration of plasma protein binding and liver blood flow. Therefore, CLint may be used as a key parameter in predicting the half-life of a compound in humans. […]
An aliquot of cell suspension (0.2 mL) was diluted with 0.2 ml protein-free suspension buffer. […] The cells were then counted (central square only) using an inverted microscope, viable cells being able to exclude the dye and non-viable cells being stained. The percentage of viable cells in the preparation was calculated thus:
The concentration of viable cells was calculated: Viable cells ml^−1=Viable cell count×10^4×3×50 […]
At appropriate time points (e.g. 5, 15, 30, 45, 60, 75, 90 and 120 min), aliquots (40 μl) were taken out of the incubation mix and added to 3 volumes of methanol to terminate the reactions and denature the hepatocytes. […] The supernatants were transferred to micro titre plates and analysed by HPLC-MSMS using the following method as a suitable starting point: […]

[2] = Distribution coefficient at pH 7.4 (Log D7.4), 1-octanol/phosphate buffer; assay type: physicochemical; details: 1-octanol / 0.02 M phosphate buffer pH 7.4
Experimental: Measurement of Distribution Coefficient at pH 7.4 (Log D7.4)
Compounds of interest (1 mg) were dispensed into individual 1-mL polypropylene vials, held within a 96-well plate along with 1-octanol (700 μL), and presaturated with 0.02 M phosphate buffer (pH 7.4). The plate was then shaken overnight followed by centrifugation (800 g for 15 min) to sediment any undissolved solids. Up to 24 mixtures of 10 compounds (or less) were then prepared by pooling the 1-octanol solutions (100 μL) into a plate of 12-mL glass sample tubes. […] The pooling of compounds was performed robotically and controlled using automatically generated bespoke work lists. If a mixture contained less than 10 compounds, then 1-octanol (presaturated with 0.02 M phosphate buffer [pH 7.4]) was added to make up the total volume of the 1-octanol phase to 1 mL. 1-Octanol-saturated phosphate buffer (0.02 M, pH 7.4, 2 mL) was then added to each mixture before shaking (450 rpm for 30 min) and centrifugation (800 g for 15 min). The final 1-octanol and aqueous phases of each partition mixture were then robotically separated. […] Log D7.4 was calculated from the ratio of one of the 1-octanol relative concentrations to the interpolated aqueous relative concentration after correcting for the extent of dilution of both the 1-octanol and aqueous solutions.

A hepatocyte CLint at 1 μM [1] of 2.9 µL/min/1e6 cells and a logD [2] of 1.9 were found for `CC1CN(S(=O)(=O)Nc2cc(O[C@H](C)[C@@H](O)CO)nc(SCc3ccc(F)cc3)n2)C1` [Example 1, N-(6-((2R,3S)-3,4-Dihydroxybutan-2-yloxy)-2-(4-fluorobenzylthio)pyrimidin-4-yl)-3-methylazetidine-1-sulfonamide] in this work.
